One assay addresses T1, USP8 (Homo sapiens, UniProt P40818).
T1 construct: His tag (from vector pFastBac-HT) (N); made in house; host or cells: insect cells (Sf9 or High Five), baculovirus
T1 sequence (P40818 1-1118): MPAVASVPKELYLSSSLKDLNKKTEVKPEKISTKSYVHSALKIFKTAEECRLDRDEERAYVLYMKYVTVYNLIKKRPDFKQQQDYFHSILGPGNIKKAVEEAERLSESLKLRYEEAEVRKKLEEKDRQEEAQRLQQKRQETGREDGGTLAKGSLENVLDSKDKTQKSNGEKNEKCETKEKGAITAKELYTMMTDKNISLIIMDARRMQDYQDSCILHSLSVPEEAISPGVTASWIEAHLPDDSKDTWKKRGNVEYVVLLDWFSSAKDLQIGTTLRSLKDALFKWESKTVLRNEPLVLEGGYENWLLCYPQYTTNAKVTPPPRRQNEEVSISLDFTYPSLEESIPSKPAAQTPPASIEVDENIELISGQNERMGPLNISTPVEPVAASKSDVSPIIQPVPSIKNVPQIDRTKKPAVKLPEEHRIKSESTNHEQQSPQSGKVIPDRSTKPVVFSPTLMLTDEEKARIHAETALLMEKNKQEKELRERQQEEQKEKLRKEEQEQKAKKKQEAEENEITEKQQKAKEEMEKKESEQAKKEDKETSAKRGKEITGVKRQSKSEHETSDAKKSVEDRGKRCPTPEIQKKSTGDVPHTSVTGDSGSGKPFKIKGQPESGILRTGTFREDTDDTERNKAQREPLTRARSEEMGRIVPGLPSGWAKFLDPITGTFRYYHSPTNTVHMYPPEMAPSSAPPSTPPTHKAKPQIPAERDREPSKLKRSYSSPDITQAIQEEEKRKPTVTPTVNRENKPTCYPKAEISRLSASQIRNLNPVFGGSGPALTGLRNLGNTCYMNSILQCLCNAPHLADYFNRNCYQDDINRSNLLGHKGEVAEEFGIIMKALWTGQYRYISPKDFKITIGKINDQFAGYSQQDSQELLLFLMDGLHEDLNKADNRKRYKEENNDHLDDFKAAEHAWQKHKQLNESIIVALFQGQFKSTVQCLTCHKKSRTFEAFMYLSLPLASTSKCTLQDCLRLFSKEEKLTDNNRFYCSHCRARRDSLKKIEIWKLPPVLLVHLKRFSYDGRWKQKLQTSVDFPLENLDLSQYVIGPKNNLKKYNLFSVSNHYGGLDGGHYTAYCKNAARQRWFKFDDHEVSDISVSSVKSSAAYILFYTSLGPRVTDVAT
Briefly: USP8 activity assay (Ub-AMC). It is filed as biochemical. The settings on record: 400 nM Ub-AMC, 630 pM enzyme, pH8.8, 30 min pre-incubation, 60 min at 37° C., sigmoidal fit; read-out: USP8 (inhibition of cysteine protease activity). The text has this:
The cDNA encoding USP8 was obtained by PCR amplification from placenta mRNA. USP8 cDNA was subcloned by PCR into a baculovirus expression vector (pFastBac-HT; Invitrogen). A cDNA encoding a mutated USP8 was generated by mutagenic PCR. The corresponding protein encodes a cysteine to alanine substitution at residue 786. The sequences were ascertained by sequencing of the entire open reading frame. Bacmids encoding […] were generated following. DH10bac transposition. The corresponding bacmids were transfected into insect cells (Sf9). Viruses were recovered from culture supernatant and amplified twice. Insect cells (Sf9 or High Five; Invitrogen) were infected for 72 hours. Total cell lysates were harvested and lyzed in lysis buffer (Tris HCl 50 mM pH7.6; 0.75% NP40; 500 mM NaCl; 10% glycerol; 1 mM DTT; 10 mM imidazole; Protease Inhibitor Cocktail; AEBSF 20 μg.ml^−1; Aprotinin 10 μg.ml^−1). Proteins were affinity purified on metal affinity resins (Talon Metal affinity resin; BD Biosciences). Bound materials were extensively washed in wash buffer (50 mM Sodium Phosphate pH 7.0; 300 mM NaCl; 10 mM imidazole; 0.5% Triton X-100; 10% glycerol) and eluted from the resin in 250 mM imidazole-containing wash buffer. Proteins were dialyzed in dialysis buffer (Tris HCl pH 7.6 20 mM; NaCl 200 mM; DTT 1 mM; EDTA 1 mM; 10% Glycerol). Proteins purifications were analyzed on 4-12% NuPAGE (Invitrogen).
USP8 was diluted in USP buffer (50 mM Tris HCl; 0.5 mM EDTA; 5 mM DTT; 0.01% Triton X-100; Bovine Serum Albumin 0.05 mg.ml^−1 pH8.8). Compounds stocks (100 mM) were stored at −20° C. in DMSO.
Reactions were performed as duplicates in Black LJL 96 well plates (HE microplates; Molecular Devices; 20 μl final reaction volume). The substrate concentration for USP8 was 400 nM Ub-AMC (Boston Biochem). The concentrations of the enzyme (USP8) in specificity assays was 630 pM. The concentrations were determined in order to perform specificity assays under initial velocities at fixed substrate concentration. Compounds were pre-incubated with enzymes for 30 minutes at 25° C. Reactions were initiated by addition of substrate to the plates containing the enzymes (+/−compounds) diluted in assay buffer. Reactions were incubated for 60 minutes at 37° C. Reactions were stopped by adding acetic acid (100 mM final). Readings were performed on a Pherastar Fluorescent Reader (BMG). λ Emission 380 nm; λ Excitation=460 nm. Data (mean values +/−standard deviation) were analyzed as % of control (no compound) and plotted as percentage versus the Log of the compound concentration using GraphPad (Prism). Data were fitted to a sigmoidal model (variable slope).

In the next assay the target is T2, Uch-L3 (Homo sapiens, UniProt P15374).
T2 sequence (P15374 1-230): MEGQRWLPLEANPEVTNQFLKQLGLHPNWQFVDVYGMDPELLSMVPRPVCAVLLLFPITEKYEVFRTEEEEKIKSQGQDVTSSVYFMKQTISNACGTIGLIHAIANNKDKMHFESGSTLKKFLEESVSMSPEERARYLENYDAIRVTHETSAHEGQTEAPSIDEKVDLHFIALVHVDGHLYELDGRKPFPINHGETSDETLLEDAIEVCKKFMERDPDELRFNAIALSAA
Briefly: UCH-L3 activity assay (Ub-AMC). It is filed as biochemical. The settings on record: 400 nM Ub-AMC, 13 pM enzyme, 30 min pre-incubation, 60 min at 37° C., sigmoidal fit; read-out: Uch-L3 (inhibition of cysteine protease activity). Here is the method:
Uch-L3 was diluted in USP buffer (50 mM Tris HCl; 0.5 mM EDTA; 5 mM DTT; 0.01% Triton X-100; Bovine Serum Albumin 0.05 mg.ml^−1 pH7.6). Compounds stocks (100 mM) were stored at −20° C. in DMSO. Compounds were tested at the following final concentrations: 100 μM; 33.3 μM; 11.1 μM; 3.7 μM; 1.23 μM; 412 nM; 137 nM; 45.7 nM, 15.2 nM; 5 nM.
Reactions were performed as duplicates in Black LJL 96 well plates (HE microplates; Molecular Devices; 20 μl final reaction volume). The substrate concentration for Uch-L3 was 400 nM Ub-AMC (Boston Biochem). The concentration of the enzyme (Uch-L3) in specificity assays was 13 pM. The concentrations were determined in order to perform specificity assays under initial velocities at fixed substrate concentration. Compounds were pre-incubated with enzymes for 30 minutes at 25° C. Reactions were initiated by addition of substrate to the plates containing the enzymes (+/−compounds) diluted in assay buffer.
Reactions were incubated for 60 minutes at 37° C. Reactions were stopped by adding acetic acid (100 mM final). Readings were performed on a Pherastar Fluorescent Reader (BMG). δ Emission 380 nm; 6 Excitation=460 nm. Data (mean values +/−standard deviation) were analyzed as % of control (no compound) and plotted as percentage versus the Log of the compound concentration using GraphPad (Prism). Data were fitted to a sigmoidal model (variable slope).

`C=CCON=C1c2ccccc2-c2nc3nnc(C)n3nc21` (mixture of isomers) [5c, 1-Methyl-2,3,4,10,10a-pentaaza-cyclopenta[b]fluoren-9-one O-allyl-oxime]: the IC50 on USP8 was 47.7 µM; on Uch-L3, 51 µM.
With `C=CCON=C1c2ccccc2-c2nc3nnc(CCCC)n3nc21` (mixture of isomers) [5e, 1-Butyl-2,3,4,110,10a-pentaaza-cyclopenta[b]fluoren-9-one O-allyl-oxime], the IC50 on USP8 was found to be 35 µM; at Uch-L3, 89 µM.
